Measured values as given in PubChem BioAssay (NCI).
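Cells were grown in 96-well plates and exposed to each compound for 48 hours at five concentrations; endpoints were interpolated linearly between bracketing concentrations, or set to the highest concentration if not reached. GI50 marks 50% less growth. TGI denotes the concentration required for complete inhibition of growth.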

How the values were obtained:
Experiment in all cases: NCI tumour cell line growth inhibition, 48 h
MDA-MB-435 = system: MDA-MB-435
HS 578T breast = system: HS 578T breast
HCT-116 colon = system: HCT-116 colon
SF-295 CNS = system: SF-295 CNS
OVCAR-8 ovarian = system: OVCAR-8 ovarian
IGROV1 ovarian = system: IGROV1 ovarian
SF-268 CNS = system: SF-268 CNS
HL-60(TB) leukemia = system: HL-60(TB) leukemia
RXF 393 renal = system: RXF 393 renal
UACC-257 melanoma = system: UACC-257 melanoma
TK-10 renal = system: TK-10 renal
SK-MEL-2 melanoma = system: SK-MEL-2 melanoma
KM12 colon = system: KM12 colon
HCC-2998 colon = system: HCC-2998 colon
SW-620 colon = system: SW-620 colon
UACC-62 melanoma = system: UACC-62 melanoma
K-562 leukemia = system: K-562 leukemia
UO-31 renal = system: UO-31 renal
MOLT-4 leukemia = system: MOLT-4 leukemia
CAKI-1 renal = system: CAKI-1 renal
BT-549 breast = system: BT-549 breast
786-0 renal = system: 786-0 renal
COLO 205 colon = system: COLO 205 colon
HOP-92 NSCLC = system: HOP-92 NSCLC
HCT-15 colon = system: HCT-15 colon
OVCAR-4 ovarian = system: OVCAR-4 ovarian
OVCAR-3 ovarian = system: OVCAR-3 ovarian
PC-3 prostate = system: PC-3 prostate
NCI/ADR-RES ovarian = system: NCI/ADR-RES ovarian
ACHN renal = system: ACHN renal
SF-539 CNS = system: SF-539 CNS
U251 CNS = system: U251 CNS
EKVX NSCLC = system: EKVX NSCLC
HT29 colon = system: HT29 colon
SK-OV-3 ovarian = system: SK-OV-3 ovarian
MALME-3M melanoma = system: MALME-3M melanoma
NCI-H226 lung = system: NCI-H226 lung
OVCAR-5 ovarian = system: OVCAR-5 ovarian
M14 melanoma = system: M14 melanoma
MDA-MB-231 breast = system: MDA-MB-231 breast
SK-MEL-28 melanoma = system: SK-MEL-28 melanoma
CCRF-CEM leukemia = system: CCRF-CEM leukemia
SK-MEL-5 melanoma = system: SK-MEL-5 melanoma
A549 NSCLC = system: A549 NSCLC
NCI-H460 lung = system: NCI-H460 lung
MCF7 breast = system: MCF7 breast
HOP-62 NSCLC = system: HOP-62 NSCLC
SR leukemia = system: SR leukemia
RPMI-8226 leukemia = system: RPMI-8226 leukemia
NCI-H23 lung = system: NCI-H23 lung
NCI-H522 lung = system: NCI-H522 lung
SNB-75 CNS = system: SNB-75 CNS
DU-145 prostate = system: DU-145 prostate
SNB-19 CNS = system: SNB-19 CNS
A498 renal = system: A498 renal
SN12C renal = system: SN12C renal

In the case of `Cc1ccc(O)c(N=Nc2c(O)cc(S(=O)(=O)O)c3ccccc23)c1`, the TGI (MDA-MB-435) is reported as > 100 µM, the TGI (HS 578T breast) is reported as > 100 µM and the TGI (HCT-116 colon) is reported as 62.5 µM. The TGI (SF-295 CNS) was > 100 µM, the TGI (OVCAR-8 ovarian) was > 100 µM and the TGI (IGROV1 ovarian) was > 100 µM. For the same compound, the TGI (SF-268 CNS) was > 100 µM, the TGI (HL-60(TB) leukemia) was 64 µM and the TGI (RXF 393 renal) was > 100 µM. For the same compound, the TGI (UACC-257 melanoma) was > 100 µM, the TGI (TK-10 renal) was > 100 µM and the TGI (SK-MEL-2 melanoma) was > 100 µM. For the same compound, the TGI (KM12 colon) was > 100 µM, the TGI (HCC-2998 colon) was > 100 µM and the TGI (SW-620 colon) was > 100 µM. For the same compound, the TGI (UACC-62 melanoma) was > 100 µM, the TGI (K-562 leukemia) was > 100 µM and the TGI (UO-31 renal) was 79.6 µM. For the same compound, the TGI (MOLT-4 leukemia) was 95.3 µM, the TGI (CAKI-1 renal) was > 100 µM and the TGI (BT-549 breast) was > 100 µM. The TGI (786-0 renal) was > 100 µM, the TGI (COLO 205 colon) was > 100 µM and the TGI (HOP-92 NSCLC) was > 100 µM. For the same compound, the TGI (HCT-15 colon) was > 100 µM, the TGI (OVCAR-4 ovarian) was > 100 µM and the TGI (OVCAR-3 ovarian) was 76.2 µM. For the same compound, the TGI (PC-3 prostate) was > 100 µM, the TGI (NCI/ADR-RES ovarian) was 86.5 µM and the TGI (ACHN renal) was > 100 µM. The TGI (SF-539 CNS) was > 100 µM, the TGI (U251 CNS) was > 100 µM and the TGI (EKVX NSCLC) was > 100 µM. For the same compound, the TGI (HT29 colon) was > 100 µM, the TGI (SK-OV-3 ovarian) was > 100 µM and the TGI (MALME-3M melanoma) was > 100 µM. The TGI (NCI-H226 lung) was > 100 µM, the TGI (OVCAR-5 ovarian) was > 100 µM and the TGI (M14 melanoma) was > 100 µM. The TGI (MDA-MB-231 breast) was > 100 µM, the TGI (SK-MEL-28 melanoma) was > 100 µM and the TGI (CCRF-CEM leukemia) was > 100 µM. The TGI (SK-MEL-5 melanoma) was 77.6 µM, the TGI (A549 NSCLC) was > 100 µM and the TGI (NCI-H460 lung) was > 100 µM. The TGI (MCF7 breast) was > 100 µM, the TGI (HOP-62 NSCLC) was > 100 µM and the TGI (SR leukemia) was > 100 µM. For the same compound, the TGI (RPMI-8226 leukemia) was > 100 µM.

`CCOC(=O)c1cc(C(=O)c2ccc(Cl)cc2)n2ccc(-c3cc[n+](CC(=O)c4ccc(OC)cc4)cc3)cc12` gave a GI50 (MDA-MB-435) of 1.86 µM, a TGI (MDA-MB-435) of 3.67 µM and a GI50 (HS 578T breast) of 1.81 µM. The TGI (HS 578T breast) was 4.38 µM, the GI50 (SF-295 CNS) was 1.7 µM and the TGI (SF-295 CNS) was 3.32 µM. The GI50 (NCI-H23 lung) was 1.84 µM, the TGI (NCI-H23 lung) was 3.74 µM and the GI50 (NCI-H522 lung) was 1.93 µM. It also gave a TGI (NCI-H522 lung) of 3.89 µM, a GI50 (RXF 393 renal) of 1.4 µM and a TGI (RXF 393 renal) of 3.03 µM. For the same compound, the GI50 (UACC-257 melanoma) was 2.21 µM, the TGI (UACC-257 melanoma) was 4.53 µM and the GI50 (TK-10 renal) was 1.76 µM. It also gave a TGI (TK-10 renal) of 3.37 µM, a GI50 (SK-MEL-2 melanoma) of 2.04 µM and a TGI (SK-MEL-2 melanoma) of 4.36 µM. The GI50 (SNB-75 CNS) was 1.47 µM, the TGI (SNB-75 CNS) was 3.09 µM and the GI50 (DU-145 prostate) was 1.69 µM. It also gave a TGI (DU-145 prostate) of 3.2 µM, a GI50 (SW-620 colon) of 1.38 µM and a TGI (SW-620 colon) of 3.27 µM. It also gave a GI50 (UACC-62 melanoma) of 1.82 µM, a TGI (UACC-62 melanoma) of 3.52 µM and a GI50 (UO-31 renal) of 1.47 µM. It also gave a TGI (UO-31 renal) of 2.99 µM, a GI50 (HOP-92 NSCLC) of 1.49 µM and a TGI (HOP-92 NSCLC) of 3.17 µM. It also gave a GI50 (HCT-15 colon) of 1.64 µM, a TGI (HCT-15 colon) of 3.6 µM and a GI50 (SNB-19 CNS) of 1.83 µM. The TGI (SNB-19 CNS) was 3.73 µM, the GI50 (OVCAR-4 ovarian) was 1.68 µM and the TGI (OVCAR-4 ovarian) was 3.4 µM. It also gave a GI50 (OVCAR-3 ovarian) of 1.88 µM, a TGI (OVCAR-3 ovarian) of 3.65 µM and a GI50 (A498 renal) of 1.6 µM. The TGI (A498 renal) was 3.17 µM, the GI50 (NCI/ADR-RES ovarian) was 3.16 µM and the TGI (NCI/ADR-RES ovarian) was 33 µM. It also gave a GI50 (ACHN renal) of 1.78 µM, a TGI (ACHN renal) of 3.31 µM and a GI50 (SF-539 CNS) of 1.68 µM. For the same compound, the TGI (SF-539 CNS) was 3.27 µM, the GI50 (U251 CNS) was 1.7 µM and the TGI (U251 CNS) was 3.54 µM. For the same compound, the GI50 (EKVX NSCLC) was 1.69 µM, the TGI (EKVX NSCLC) was 3.5 µM and the GI50 (SK-OV-3 ovarian) was 2.01 µM. It also gave a TGI (SK-OV-3 ovarian) of 3.62 µM, a GI50 (MALME-3M melanoma) of 2.01 µM and a TGI (MALME-3M melanoma) of 3.98 µM. For the same compound, the GI50 (SN12C renal) was 1.83 µM, the TGI (SN12C renal) was 3.59 µM and the GI50 (OVCAR-5 ovarian) was 1.82 µM. It also gave a TGI (OVCAR-5 ovarian) of 3.69 µM, a GI50 (MDA-MB-231 breast) of 1.59 µM and a TGI (MDA-MB-231 breast) of 3.25 µM. For the same compound, the GI50 (SK-MEL-28 melanoma) was 1.89 µM, the TGI (SK-MEL-28 melanoma) was 3.74 µM and the GI50 (SK-MEL-5 melanoma) was 1.77 µM. It also gave a TGI (SK-MEL-5 melanoma) of 3.42 µM, a GI50 (MCF7 breast) of 1.4 µM and a TGI (MCF7 breast) of 3.36 µM.

For `O=S(=O)(O)c1ccc(N=Nc2ccc(N=Nc3c(O)ccc4cc(S(=O)(=O)O)ccc34)cc2)cc1`, the TGI (MDA-MB-435) was > 100 µM, the TGI (HS 578T breast) was > 100 µM and the TGI (HCT-116 colon) was > 100 µM. The TGI (SF-295 CNS) was > 100 µM, the TGI (NCI-H23 lung) was > 100 µM and the TGI (OVCAR-8 ovarian) was > 100 µM. For the same compound, the TGI (IGROV1 ovarian) was > 100 µM, the TGI (SF-268 CNS) was > 100 µM and the TGI (HL-60(TB) leukemia) was > 100 µM. For the same compound, the TGI (NCI-H522 lung) was > 100 µM, the TGI (RXF 393 renal) was > 100 µM and the TGI (UACC-257 melanoma) was > 100 µM. For the same compound, the TGI (TK-10 renal) was > 100 µM, the TGI (SK-MEL-2 melanoma) was > 100 µM and the TGI (KM12 colon) was > 100 µM. The TGI (SNB-75 CNS) was > 100 µM, the TGI (HCC-2998 colon) was > 100 µM and the TGI (SW-620 colon) was > 100 µM. For the same compound, the TGI (UACC-62 melanoma) was > 100 µM, the TGI (K-562 leukemia) was > 100 µM and the TGI (UO-31 renal) was > 100 µM. For the same compound, the TGI (MOLT-4 leukemia) was > 100 µM, the TGI (CAKI-1 renal) was > 100 µM and the TGI (BT-549 breast) was > 100 µM. The TGI (786-0 renal) was > 100 µM, the TGI (COLO 205 colon) was > 100 µM and the TGI (HOP-92 NSCLC) was > 100 µM. For the same compound, the TGI (HCT-15 colon) was > 100 µM, the TGI (SNB-19 CNS) was > 100 µM and the TGI (OVCAR-3 ovarian) was > 100 µM. For the same compound, the TGI (PC-3 prostate) was > 100 µM, the TGI (NCI/ADR-RES ovarian) was > 100 µM and the TGI (ACHN renal) was > 100 µM. For the same compound, the TGI (SF-539 CNS) was > 100 µM, the TGI (U251 CNS) was > 100 µM and the TGI (EKVX NSCLC) was > 100 µM. For the same compound, the TGI (HT29 colon) was > 100 µM, the TGI (SK-OV-3 ovarian) was > 100 µM and the TGI (MALME-3M melanoma) was > 100 µM. The TGI (NCI-H226 lung) was > 100 µM, the TGI (OVCAR-5 ovarian) was > 100 µM and the TGI (M14 melanoma) was > 100 µM. For the same compound, the TGI (MDA-MB-231 breast) was > 100 µM, the TGI (SK-MEL-28 melanoma) was > 100 µM and the TGI (CCRF-CEM leukemia) was > 100 µM. For the same compound, the TGI (SK-MEL-5 melanoma) was > 100 µM, the TGI (A549 NSCLC) was > 100 µM and the TGI (NCI-H460 lung) was > 100 µM. For the same compound, the TGI (MCF7 breast) was > 100 µM, the TGI (HOP-62 NSCLC) was > 100 µM and the TGI (SR leukemia) was > 100 µM. For the same compound, the TGI (RPMI-8226 leukemia) was > 100 µM.
